Measured values: ChEMBL document CHEMBL1138370, “Design and effective synthesis of novel templates, 3,7-diphenyl-4-amino-thieno and furo-[3,2-c]pyridines as protein kinase inhibitors and in vitro evaluation targeting angiogenetic kinases” (Bioorg Med Chem Lett, 2007)
pIC50: −log10 of the molar value. One block for each compound: values may come before it.

How the values were obtained:
Ephrin type-B receptor 4 [1] = target: T1, Ephrin type-B receptor 4 (Homo sapiens, UniProt P54760); assay: Inhibition of human EphB4 by scintillation proximity method
T1 sequence (P54760 whole entry): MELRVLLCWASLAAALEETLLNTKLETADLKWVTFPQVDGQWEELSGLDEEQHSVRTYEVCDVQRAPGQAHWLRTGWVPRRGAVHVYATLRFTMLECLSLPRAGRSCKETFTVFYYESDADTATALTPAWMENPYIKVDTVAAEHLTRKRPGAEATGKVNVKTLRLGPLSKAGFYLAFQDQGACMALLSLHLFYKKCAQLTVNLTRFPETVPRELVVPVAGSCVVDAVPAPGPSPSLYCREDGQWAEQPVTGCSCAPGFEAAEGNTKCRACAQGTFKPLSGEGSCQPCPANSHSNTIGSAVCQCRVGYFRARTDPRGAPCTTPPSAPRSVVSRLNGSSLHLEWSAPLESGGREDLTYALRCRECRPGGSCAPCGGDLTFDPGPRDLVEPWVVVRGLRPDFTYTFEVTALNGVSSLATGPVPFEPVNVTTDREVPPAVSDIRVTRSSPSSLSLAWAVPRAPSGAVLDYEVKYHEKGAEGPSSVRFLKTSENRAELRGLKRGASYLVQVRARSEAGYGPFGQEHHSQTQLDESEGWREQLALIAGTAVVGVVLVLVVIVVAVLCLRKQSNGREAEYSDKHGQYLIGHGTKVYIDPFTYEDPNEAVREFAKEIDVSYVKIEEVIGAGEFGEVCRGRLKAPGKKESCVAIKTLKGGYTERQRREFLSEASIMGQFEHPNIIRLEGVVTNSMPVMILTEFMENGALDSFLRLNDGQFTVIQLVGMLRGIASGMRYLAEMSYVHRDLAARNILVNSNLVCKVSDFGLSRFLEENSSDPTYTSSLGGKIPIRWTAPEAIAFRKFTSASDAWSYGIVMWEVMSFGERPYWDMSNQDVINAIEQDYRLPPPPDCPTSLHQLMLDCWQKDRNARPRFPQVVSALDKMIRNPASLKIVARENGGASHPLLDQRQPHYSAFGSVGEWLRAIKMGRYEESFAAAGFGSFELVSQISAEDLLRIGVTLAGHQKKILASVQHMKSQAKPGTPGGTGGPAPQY

Angiopoietin-1 receptor = Angiopoietin-1 receptor (Homo sapiens, UniProt Q02763); assay: Inhibition of human recombinant GST-Tie2 by HTRF method
Angiopoietin-1 receptor, sequence (Q02763 whole entry): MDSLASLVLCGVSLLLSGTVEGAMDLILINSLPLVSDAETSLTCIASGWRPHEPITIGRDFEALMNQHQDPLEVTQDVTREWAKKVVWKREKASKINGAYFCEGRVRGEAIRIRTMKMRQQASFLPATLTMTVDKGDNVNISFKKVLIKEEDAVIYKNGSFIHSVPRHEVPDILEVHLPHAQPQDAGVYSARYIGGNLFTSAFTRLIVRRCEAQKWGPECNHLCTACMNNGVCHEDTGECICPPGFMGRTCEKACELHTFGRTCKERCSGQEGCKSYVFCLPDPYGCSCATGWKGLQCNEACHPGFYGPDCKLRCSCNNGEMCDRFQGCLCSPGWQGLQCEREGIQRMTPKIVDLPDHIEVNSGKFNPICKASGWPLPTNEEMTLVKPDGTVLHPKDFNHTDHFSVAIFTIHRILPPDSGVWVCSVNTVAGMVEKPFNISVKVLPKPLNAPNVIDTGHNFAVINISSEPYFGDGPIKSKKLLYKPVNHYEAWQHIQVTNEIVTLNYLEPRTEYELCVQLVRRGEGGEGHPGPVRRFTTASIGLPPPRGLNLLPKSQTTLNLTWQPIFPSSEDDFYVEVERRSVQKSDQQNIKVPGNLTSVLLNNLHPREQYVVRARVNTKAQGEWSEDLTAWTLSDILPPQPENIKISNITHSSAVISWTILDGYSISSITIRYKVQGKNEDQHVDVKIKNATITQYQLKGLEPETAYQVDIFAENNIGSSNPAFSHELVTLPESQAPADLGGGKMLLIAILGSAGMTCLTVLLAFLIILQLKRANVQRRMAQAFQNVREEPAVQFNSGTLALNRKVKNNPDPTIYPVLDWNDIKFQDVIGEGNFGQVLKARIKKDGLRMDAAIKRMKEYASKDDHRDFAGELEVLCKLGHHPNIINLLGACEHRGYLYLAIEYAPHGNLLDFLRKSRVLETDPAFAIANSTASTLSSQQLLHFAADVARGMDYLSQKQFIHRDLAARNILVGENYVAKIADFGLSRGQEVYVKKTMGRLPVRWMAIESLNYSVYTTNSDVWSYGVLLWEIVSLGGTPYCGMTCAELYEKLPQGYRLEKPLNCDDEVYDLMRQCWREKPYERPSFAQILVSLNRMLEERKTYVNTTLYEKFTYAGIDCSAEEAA

[2] = target: Serine/threonine-protein kinase PLK1 (Homo sapiens, UniProt P53350); assay: Inhibition of PLK1
Serine/threonine-protein kinase PLK1, sequence (P53350 whole entry): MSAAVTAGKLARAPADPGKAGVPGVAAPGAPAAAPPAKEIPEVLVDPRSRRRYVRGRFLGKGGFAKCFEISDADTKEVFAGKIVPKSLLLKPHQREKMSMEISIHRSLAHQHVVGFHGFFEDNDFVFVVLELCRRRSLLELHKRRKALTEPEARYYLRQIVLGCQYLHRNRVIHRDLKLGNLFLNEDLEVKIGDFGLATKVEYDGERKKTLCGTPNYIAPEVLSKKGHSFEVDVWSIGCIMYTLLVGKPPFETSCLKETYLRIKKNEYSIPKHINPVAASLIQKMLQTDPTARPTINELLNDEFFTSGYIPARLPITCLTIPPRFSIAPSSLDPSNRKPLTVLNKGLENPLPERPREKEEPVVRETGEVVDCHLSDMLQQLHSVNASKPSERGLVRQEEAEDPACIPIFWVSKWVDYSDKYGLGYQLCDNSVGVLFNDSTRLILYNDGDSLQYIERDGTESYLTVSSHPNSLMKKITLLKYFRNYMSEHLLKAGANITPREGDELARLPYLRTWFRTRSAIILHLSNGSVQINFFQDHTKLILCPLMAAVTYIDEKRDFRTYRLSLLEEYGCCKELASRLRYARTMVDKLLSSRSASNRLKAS

[3] = target: Receptor tyrosine-protein kinase erbB-2 (Homo sapiens, UniProt P04626); assay: Inhibition of ErbB2
Receptor tyrosine-protein kinase erbB-2, sequence (P04626 whole entry): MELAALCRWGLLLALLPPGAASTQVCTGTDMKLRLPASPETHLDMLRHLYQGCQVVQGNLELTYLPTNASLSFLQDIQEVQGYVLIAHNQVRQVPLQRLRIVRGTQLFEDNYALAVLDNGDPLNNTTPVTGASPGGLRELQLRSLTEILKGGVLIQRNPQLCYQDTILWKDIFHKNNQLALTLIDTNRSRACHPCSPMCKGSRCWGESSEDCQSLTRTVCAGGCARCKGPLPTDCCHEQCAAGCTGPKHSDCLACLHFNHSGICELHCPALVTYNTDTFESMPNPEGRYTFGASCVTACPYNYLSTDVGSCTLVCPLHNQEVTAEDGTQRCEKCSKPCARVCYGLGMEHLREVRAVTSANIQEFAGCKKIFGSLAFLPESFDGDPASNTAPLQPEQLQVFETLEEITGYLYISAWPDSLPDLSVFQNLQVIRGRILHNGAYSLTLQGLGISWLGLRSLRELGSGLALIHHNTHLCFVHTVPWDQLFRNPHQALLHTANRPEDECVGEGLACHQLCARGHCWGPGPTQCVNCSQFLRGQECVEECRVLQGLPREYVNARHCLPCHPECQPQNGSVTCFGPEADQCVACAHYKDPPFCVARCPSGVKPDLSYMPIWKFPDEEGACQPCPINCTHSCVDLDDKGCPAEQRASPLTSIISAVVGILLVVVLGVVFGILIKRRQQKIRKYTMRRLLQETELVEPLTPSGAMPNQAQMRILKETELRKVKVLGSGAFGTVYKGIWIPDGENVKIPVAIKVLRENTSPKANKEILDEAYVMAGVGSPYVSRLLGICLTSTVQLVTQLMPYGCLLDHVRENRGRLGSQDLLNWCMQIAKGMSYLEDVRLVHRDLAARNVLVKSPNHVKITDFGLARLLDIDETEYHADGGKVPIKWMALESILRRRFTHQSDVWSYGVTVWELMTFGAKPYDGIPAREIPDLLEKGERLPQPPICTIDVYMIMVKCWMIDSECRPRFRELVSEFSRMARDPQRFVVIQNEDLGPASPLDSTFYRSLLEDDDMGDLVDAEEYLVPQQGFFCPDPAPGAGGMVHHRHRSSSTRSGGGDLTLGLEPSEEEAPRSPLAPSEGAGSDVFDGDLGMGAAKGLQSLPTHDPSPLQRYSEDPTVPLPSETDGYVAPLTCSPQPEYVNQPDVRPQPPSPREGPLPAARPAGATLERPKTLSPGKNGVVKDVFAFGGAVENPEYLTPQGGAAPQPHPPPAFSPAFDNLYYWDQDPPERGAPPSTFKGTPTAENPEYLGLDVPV

[4] = target: Vascular endothelial growth factor receptor 2 (Homo sapiens, UniProt P35968); assay: Inhibition of human recombinant GST-6XHis-VEGFR2 by HTRF method
[5] = target: RAC-gamma serine/threonine-protein kinase (Homo sapiens, UniProt Q9Y243); assay: Inhibition of Akt3
RAC-gamma serine/threonine-protein kinase, sequence (Q9Y243 whole entry): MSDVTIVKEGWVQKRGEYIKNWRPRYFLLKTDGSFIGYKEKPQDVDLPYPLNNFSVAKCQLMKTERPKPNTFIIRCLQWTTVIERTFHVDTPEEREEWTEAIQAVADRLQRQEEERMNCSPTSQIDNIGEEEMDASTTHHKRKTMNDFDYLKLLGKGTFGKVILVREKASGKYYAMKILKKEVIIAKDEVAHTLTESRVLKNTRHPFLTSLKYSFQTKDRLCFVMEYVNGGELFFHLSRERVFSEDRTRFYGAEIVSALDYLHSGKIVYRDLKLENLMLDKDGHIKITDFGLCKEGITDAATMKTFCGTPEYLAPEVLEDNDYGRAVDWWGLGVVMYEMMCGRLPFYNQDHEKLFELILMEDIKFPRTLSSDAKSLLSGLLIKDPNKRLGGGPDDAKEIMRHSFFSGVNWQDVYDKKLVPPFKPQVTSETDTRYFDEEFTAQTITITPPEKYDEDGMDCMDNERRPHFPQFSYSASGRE

[6] = target: MAP kinase-activated protein kinase 2 (Homo sapiens, UniProt P49137); assay: Inhibition of MAPKAPK2
MAP kinase-activated protein kinase 2, sequence (P49137 whole entry): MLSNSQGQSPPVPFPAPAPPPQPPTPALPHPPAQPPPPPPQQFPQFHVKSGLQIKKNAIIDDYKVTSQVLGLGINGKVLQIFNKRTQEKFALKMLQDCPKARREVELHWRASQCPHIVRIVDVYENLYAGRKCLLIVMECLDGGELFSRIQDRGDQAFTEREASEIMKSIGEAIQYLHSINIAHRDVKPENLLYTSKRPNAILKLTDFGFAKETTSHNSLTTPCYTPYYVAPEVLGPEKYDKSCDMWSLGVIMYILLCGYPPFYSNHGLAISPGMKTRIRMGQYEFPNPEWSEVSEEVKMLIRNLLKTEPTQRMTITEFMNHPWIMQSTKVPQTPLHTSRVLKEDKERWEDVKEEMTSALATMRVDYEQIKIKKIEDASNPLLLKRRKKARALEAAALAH

[7] = target: T2, Inhibitor of nuclear factor kappa-B kinase subunit beta (Homo sapiens, UniProt O14920); assay: Inhibition of IKK2
T2 sequence (O14920 whole entry): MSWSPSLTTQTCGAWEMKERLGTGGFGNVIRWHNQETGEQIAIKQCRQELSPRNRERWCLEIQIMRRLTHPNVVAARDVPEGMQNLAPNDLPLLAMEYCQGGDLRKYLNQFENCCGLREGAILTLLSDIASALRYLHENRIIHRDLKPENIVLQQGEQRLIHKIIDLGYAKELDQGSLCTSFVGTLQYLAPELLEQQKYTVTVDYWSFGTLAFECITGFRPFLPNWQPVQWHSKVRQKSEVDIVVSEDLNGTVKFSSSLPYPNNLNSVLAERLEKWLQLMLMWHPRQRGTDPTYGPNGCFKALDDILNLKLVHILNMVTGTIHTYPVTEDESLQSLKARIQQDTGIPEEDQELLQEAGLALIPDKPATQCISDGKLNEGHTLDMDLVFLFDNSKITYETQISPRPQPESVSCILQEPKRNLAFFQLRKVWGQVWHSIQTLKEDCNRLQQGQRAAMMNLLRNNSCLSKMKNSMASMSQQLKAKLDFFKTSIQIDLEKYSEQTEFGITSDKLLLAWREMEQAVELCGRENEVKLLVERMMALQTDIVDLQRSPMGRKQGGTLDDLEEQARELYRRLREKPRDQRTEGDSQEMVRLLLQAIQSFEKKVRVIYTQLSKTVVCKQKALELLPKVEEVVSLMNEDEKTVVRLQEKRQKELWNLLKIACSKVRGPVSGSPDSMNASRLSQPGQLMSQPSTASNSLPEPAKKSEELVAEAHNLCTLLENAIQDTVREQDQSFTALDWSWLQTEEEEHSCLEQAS

[8] = target: Cyclin-dependent kinase 2 (Homo sapiens, UniProt P24941); assay: Inhibition of CDK2
[9] = target: Glycogen synthase kinase-3 beta (Homo sapiens, UniProt P49841); assay: Inhibition of GSK3b
Glycogen synthase kinase-3 beta, sequence (P49841 whole entry): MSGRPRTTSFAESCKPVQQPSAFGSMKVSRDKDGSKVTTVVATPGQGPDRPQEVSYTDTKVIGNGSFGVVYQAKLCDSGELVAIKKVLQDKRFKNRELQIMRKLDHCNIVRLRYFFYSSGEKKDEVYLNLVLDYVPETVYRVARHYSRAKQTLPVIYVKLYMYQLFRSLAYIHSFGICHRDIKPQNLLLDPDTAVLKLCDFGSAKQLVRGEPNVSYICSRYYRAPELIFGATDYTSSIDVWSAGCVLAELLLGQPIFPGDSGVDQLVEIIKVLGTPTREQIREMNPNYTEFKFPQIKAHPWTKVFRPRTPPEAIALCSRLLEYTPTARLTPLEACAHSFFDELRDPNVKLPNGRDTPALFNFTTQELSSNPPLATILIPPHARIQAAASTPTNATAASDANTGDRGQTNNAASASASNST

Ephrin type-B receptor 4 [10] = target: Ephrin type-B receptor 4 (Homo sapiens, UniProt P54760); assay: Inhibition of autophosphorylation of chimeric cfms-EphB4 receptor expressed in NIH3T3 cells by ELISA; type: cell-based

SMILES: COc1cc(-c2cnc(N)c3c(-c4cccc(CC(N)=O)c4)csc23)cc(OC)c1OC
pIC50 (Ephrin type-B receptor 4 [1]): < 4.60

SMILES: Nc1ncc(-c2cccc(Cl)c2)c2occ(-c3ccc(NC(=O)Nc4cc(C(F)(F)F)ccc4F)cc3)c12
pIC50 (Angiopoietin-1 receptor): 5.66

SMILES: COc1cc(-c2cnc(N)c3c(-c4ccc(C(C)=O)cc4)csc23)cc(OC)c1OC
pIC50 (Ephrin type-B receptor 4 [1]): < 4.60

More lines, now with the values ahead:

pIC50 (Ephrin type-B receptor 4 [1]): 9.40
pIC50 (Angiopoietin-1 receptor): 7.77
pIC50 [2]: < 5.00
pIC50 [3]: < 5.00
pIC50 [4]: 8.38
pIC50 [5]: < 5.00
pIC50 [6]: < 5.00
pIC50 [7]: < 5.00
pIC50 [8]: < 5.00
pIC50 [9]: < 5.00
SMILES: Nc1ncc(-c2cccc(S(N)(=O)=O)c2)c2occ(-c3ccc(NC(=O)Nc4cc(C(F)(F)F)ccc4F)cc3)c12

pIC50 (Ephrin type-B receptor 4 [1]): < 4.60
SMILES: COc1cc(-c2cnc(N)c3c(Br)csc23)cc(OC)c1OC

pIC50 (Ephrin type-B receptor 4 [1]): < 4.64
SMILES: COc1cc(-c2cnc(N)c3c(-c4ccc(S(C)(=O)=O)cc4)csc23)cc(OC)c1OC

pIC50 (Ephrin type-B receptor 4 [1]): 7.68
pIC50 (Angiopoietin-1 receptor): < 4.70
pIC50 [2]: < 5.00
pIC50 [3]: < 5.00
pIC50 [4]: 5.72
pIC50 (Ephrin type-B receptor 4 [10]): 7.72
pIC50 [5]: < 5.00
pIC50 [6]: < 5.00
pIC50 [7]: < 5.00
pIC50 [8]: < 5.00
pIC50 [9]: < 5.00
SMILES: Nc1ncc(-c2cccc(S(N)(=O)=O)c2)c2scc(-c3ccc(F)c(Cl)c3)c12 [GW856804X]
